In patent US20220354834A1, “METHODS AND MATERIALS FOR TREATING NEUROTOXICITY” (Cavion, Inc., priority 2019, published 2022):

What was measured:
[1] = system: RPMI-8226 human myeloma xenografts; test: In vivo BTZ and combination (BTZ and CX-8998) anti-tumor (interference) study, tumor volume; parameters: species or system athymic nude mouse
Source text: Care and husbandry of mice complied with USDA (U.S. Department of Agriculture) Animal Welfare Act and START IACUC (Institutional Animal Care and Use Committee) regulations. The protocol was reviewed and approved by START IACUC. Mice were individually housed in Sealsafe® Plus ventilated cages (Techniplast, West Chester, Pa., USA) and fed with Teklad 2919 (Envigo, Somerset, N.J., USA), irradiated, 19% protein, 9% fat and 4% fiber mouse chow. Mice were maintained under controlled environmental conditions (22+/−2° C. temperature, 55+/−10% relative humidity and 12-hour light/dark cycle (7 a.m.-7 p.m.).
South Texas Accelerated Research Therapeutics (START) (San Antonio, Tex., USA) conducted this study. […] The 30 mg/kg dose was tolerated in preclinical safety studies and anticipated to result in exposures in excess of the therapeutic range for 28 days. Body weight, TV and animal observations were collected twice per week to day 18 (termination) for vehicle control mice and twice per week to day 28 (termination) for each of the other 3 groups. Mean±SD body weight and TV were analyzed with Kruskal-Wallis and Dunn multiple comparison test at day 18 and with Mann Whitney test at day 28 with statistical significance at p<0.05.

[2] = system: intraepidermal nerve fibers (BTZ-induced CIPN); test: IENF density and histopathology of plantar glabrous skin; format: in vivo, Wistar rat; conditions: week 8
Description: (§1) Wistar female rats (n=52) (Envigo, Correzzano, Italy) at 10-11 weeks of age were utilized. The study was divided into 2 phases of 4 weeks each. […] Body weight was measured periodically during phase 1 from baseline (day 1) to day 28. At baseline and conclusion of phase 1 (day 28), nerve conduction velocity (NCV) was performed on caudal and sciatic nerves and Dynamic Aesthesiometer Test (DAT) measured mechanical threshold (MT) of the hind paw. […] Body weight was measured periodically from baseline (day 28) to day 56 (termination). NCV and MT were measured in all 4 groups at baseline and on day 35 and 56. […] At termination, sciatic nerves were obtained for β-tubulin polymerization and skin samples were procured for intraepidermal nerve fiber (IENF) density and histopathology.
(§2) At day 56, animals were euthanized by CO2 inhalation and tissue samples were procured from 4 rats per group. Right sciatic nerve was frozen in liquid nitrogen for β-tubulin polymerization assay and plantar glabrous skin samples were collected for IENF density.
Plantar glabrous skin samples (5 mm) from hind paws were fixed in 2% PLP (paraformaldehyde-lysine-sodium periodate) for 24 hours at 4° C. and cryoprotected overnight. Samples were serially cut with a cryostat to yield 20 μm sections. Three sections from each footpad were randomly selected and immunostained with rabbit polyclonal anti-protein gene product 9.5 (PGP 9.5; GeneTex, Irvine, Calif., USA) in combination with biotinylated anti-rabbit IgG and Vector SG substrate kit peroxidase (Vector Laboratories, Burlingame, Calif.) using a free-floating protocol. A blinded observer counted total number of immune-positive IENF in each section under light microscopy at high magnification with a microscope video camera. Individual fibers were counted that crossed dermal-epidermal interface. Secondary branches within epidermis were excluded. Length of epidermis was measured to generate linear density of IENF/millimeter as described elsewhere (Canta et al., 2016 Neurobiol Aging 45:136-148).

β-tubulin = β-tubulin polymerization assay in sciatic nerve; format: in vivo, Wistar rat; conditions: week 8
Description: as §1, §2
Protein extracts from sciatic nerves were processed similar to the proteasome assay except for lysis buffer that contained freshly added protease and […] (10 mM sodium orthovanadate, 4 mM phenylmethylsulfonyl fluoride, 1% aprotinin and 20 mM sodium pyrophosphate). Protein extracts were centrifuged (14000 rpm for 10 minutes at 4° C.) to separate soluble (S) free tubulin fractions from polymerized (P) fractions. Supernatants were collected and pellets of polymerized tubulin were resuspended by sonication for 20 seconds in a volume of lysis buffer supplemented with 0.5% sodium deoxycholate (equivalent to S fraction). Protein aliquots (10 μg) were placed onto 13% SDS-PAGE and, after electrophoresis, were transferred to nitrocellulose filters. Immunoblotting analysis was performed using mouse anti-β-tubulin antibody. After incubation with primary antibody, membrane was washed and incubated with horseradish peroxidase conjugated to […] (Perkin Elmer Italia SPA, Monza, Italy). The ECL chemiluminescence system (Amersham GE Healthcare Europe GmbH, Milano, Italy) was used for detection. Band intensity was quantified with Gel Logic 100 Image System (Eastman Kodak, Rochester, N.Y., USA). Final mean values were obtained from triplicate experiments and data were expressed as percentage of P/P+S in treated rats compared to controls.

[3] = system: sciatic nerves (BTZ-induced CIPN); test: CIPN-reversal study: sciatic nerve conduction velocity; format: in vivo, Wistar rat
Description: as §1
NCV (meters/second) was obtained from caudal and sciatic nerves with an electromyography tool (Myto 2, ABN Neuro, Firenze, Italy). Caudal NCV was measured by placement of recording needle electrodes distally in the tail with stimulating needle electrodes 5 cm and 10 cm proximal to recording point. Peak latencies of potentials recorded at the 2 sites after nerve stimulation were determined and NCV was calculated. Sciatic NCV was determined by placement of needle recording electrodes near ankle bone and stimulating electrodes close to thigh. Peak latencies were recorded similar to caudal nerve and NCV was calculated. NCV was performed under standard conditions in a temperature-controlled facility (22±2° C.) and rats were under isoflurane anesthesia with monitoring of vital signs.

[4] = BTZ vs BTZ+ CX-8998 3 mg/kg, P > 0.05 ns
[5] = BTZ vs BTZ+ CX-8998 10 mg/kg, P > 0.05 ns
[6] = BTZ vs BTZ+ CX-8998 30 mg/kg, P < 0.05 *
[7] = BTZ+ CX-8998 3 mg/kg vs BTZ+ CX-8998 10 mg/kg, P > 0.05 ns
[8] = CTRL vs BTZ+ CX-8998 3 mg/kg, P < 0.05 *
[9] = CTRL vs BTZ+ CX-8998 30 mg/kg, P > 0.05 ns
[10] = BTZ vs BTZ+ CX-8998 30 mg/kg, P > 0.05 ns

## CC(C)c1ccc(CC(=O)N[C@H](C)c2ccc(OCC(F)(F)F)cn2)cc1 [CX-8998, (R)-2-(4-Isopropylphenyl)-N-(1-(5-(2,2,2-Trifluoroethoxy)pyridin-2-yl)ethyl)acetamide]
[1]; BTZ vs BTZ+ CX-8998, P > 0.05 ns
  TUMOR GROWTH DAY 18, Difference in rank sum (Dunn's Multiple Comparison Test): −3.000
[1]; Vehicle Control vs BTZ+ cx-8998, P < 0.05 *
  TUMOR GROWTH DAY 18, Difference in rank sum (Dunn's Multiple Comparison Test): 10.13
[2]; [4]
  IENF DENSITY, Difference in rank sum (Dunn's Multiple Comparison Test): −10.93
[2]; [5]
  IENF DENSITY, Difference in rank sum (Dunn's Multiple Comparison Test): −0.04167
[2]; [6]
  IENF DENSITY, Difference in rank sum (Dunn's Multiple Comparison Test): −20.54
[2]; [7]
  IENF DENSITY, Difference in rank sum (Dunn's Multiple Comparison Test): 10.89
[2]; BTZ+ CX-8998 3 mg/kg vs BTZ+ CX-8998 30 mg/kg, P > 0.05 ns
  IENF DENSITY, Difference in rank sum (Dunn's Multiple Comparison Test): −9.611
[2]; BTZ+ CX-8998 10 mg/kg vs BTZ+ CX-8998 30 mg/kg, P < 0.01 **
  IENF DENSITY, Difference in rank sum (Dunn's Multiple Comparison Test): −20.50
[2]; [8]
  IENF DENSITY, Difference in rank sum (Dunn's Multiple Comparison Test): 18.06
[2]; CTRL vs BTZ+ CX-8998 10 mg/kg, P < 0.001 ***
  IENF DENSITY, Difference in rank sum (Dunn's Multiple Comparison Test): 28.94
[2]; [9]
  IENF DENSITY, Difference in rank sum (Dunn's Multiple Comparison Test): 8.444
β-tubulin; [4]
  TUBULIN POLYMERIZATION, Difference in rank sum (Dunn's Multiple Comparison Test): −4.000
β-tubulin; [5]
  TUBULIN POLYMERIZATION, Difference in rank sum (Dunn's Multiple Comparison Test): −4.000
β-tubulin; [10]
  TUBULIN POLYMERIZATION, Difference in rank sum (Dunn's Multiple Comparison Test): 15.00
β-tubulin; [7]
  TUBULIN POLYMERIZATION, Difference in rank sum (Dunn's Multiple Comparison Test): 0.000
β-tubulin; BTZ+ CX-8998 3 mg/kg vs BTZ+ CX-8998 30 mg/kg, P < 0.05 *
  TUBULIN POLYMERIZATION, Difference in rank sum (Dunn's Multiple Comparison Test): 19.00
β-tubulin; BTZ+ CX-8998 10 mg/kg vs BTZ+ CX-8998 30 mg/kg, P < 0.05 *
  TUBULIN POLYMERIZATION, Difference in rank sum (Dunn's Multiple Comparison Test): 19.00
β-tubulin; [8]
  TUBULIN POLYMERIZATION, Difference in rank sum (Dunn's Multiple Comparison Test): −15.64
β-tubulin; CTRL vs BTZ+ CX-8998 10 mg/kg, P < 0.05 *
  TUBULIN POLYMERIZATION, Difference in rank sum (Dunn's Multiple Comparison Test): −15.46
β-tubulin; [9]
  TUBULIN POLYMERIZATION, Difference in rank sum (Dunn's Multiple Comparison Test): 0.2576
[3]; [4]
  NCV OF SCIATIC NERVE (5 weeks), Difference in rank sum (Dunn's Multiple Comparison Test): 6.667
  NCV OF SCIATIC NERVE (8 weeks), Difference in rank sum (Dunn's Multiple Comparison Test): −10.12
[3]; BTZ vs BTZ+ CX-8998 10 mg/kg, P < 0.05 *
  NCV OF SCIATIC NERVE (8 weeks), Difference in rank sum (Dunn's Multiple Comparison Test): −19.26
[3]; [5]
  NCV OF SCIATIC NERVE (5 weeks), Difference in rank sum (Dunn's Multiple Comparison Test): 2.583
[3]; [6]
  NCV OF SCIATIC NERVE (8 weeks), Difference in rank sum (Dunn's Multiple Comparison Test): −19.77
[3]; [10]
  NCV OF SCIATIC NERVE (5 weeks), Difference in rank sum (Dunn's Multiple Comparison Test): 5.250
[3]; [7]
  NCV OF SCIATIC NERVE (5 weeks), Difference in rank sum (Dunn's Multiple Comparison Test): −4.083
  NCV OF SCIATIC NERVE (8 weeks), Difference in rank sum (Dunn's Multiple Comparison Test): −9.136
